Patent publication US8802405B2, “Ethanologenic Clostridium species, Clostridium coskatii” (Coskata, Inc., priority 2010, dated 2014)

Tests used:
Experiment in all cases: Growth on various substrates (carbon substrate utilization)
[1] = test system: C. autoethangenum; format: cell-based, Clostridium autoethanogenum; settings: for Growth on substrate: C. autoethangenum, 1 g/L carbon source, N2:CO2 (80%:20%), OD600
Procedure: (§1) Growth was measured spectrophotometrically at 600 nm (Spectronic 20D; Milton Roy). Carbon substrate utilization was based upon growth after consecutive transfers in media containing 1 g/L of each carbon source. For carbon substrates, screening was performed under an atmosphere of N2: CO2 (80%:20%). A positive growth response was recorded for an OD600 exceeding 0.2 AU. For citrate, additional ^13C-labeled isotope experiments were conducted to determine the nature of products by analysis of final 0.2 μm-filtered product samples by carbon NMR using a Bruker UltraShield Avance 400 MHz nuclear magnetic resonance spectrometer.

[2] = test system: C. ragsdalei; format: cell-based, Clostridium ragsdalei; settings: for Growth on substrate: 1 g/L carbon source, N2:CO2 (80%:20%), OD600
Procedure: as §1

[3] = test system: C. ljungdahlii PETC; format: cell-based, Clostridium ljungdahlii PETC; settings: for Growth on substrate: 1 g/L carbon source, N2:CO2 (80%:20%), OD600
Procedure: as §1

[4] = test system: C. coskatii PS02; format: cell-based, Clostridium coskatii (PS02); settings: for Growth on substrate: C. coskatii PS02, 1 g/L carbon source, N2:CO2 (80%:20%), OD600; for Chemoorganotrophic growth on substrate (in words): Clostridium coskatii (PS02)
Procedure: as §1

| SMILES | Growth on substrate [1] | Growth on substrate [2] | Growth on substrate [3] | Growth on substrate [4] | Chemoorganotrophic growth on substrate (in words) [4] | Growth on substrate (in words) ([1]; C. autoethanogenum) | Growth on substrate (in words) [2] | Growth on substrate (in words) [3] |
| --- | --- | --- | --- | --- | --- | --- | --- | --- |
| O=C(CO)[C@@H](O)[C@H](O)[C@H](O)CO [Fructose] | + (A positive growth response was recorded for an OD600 exceeding 0.2 AU) | + (A positive growth response was recorded for an OD600 exceeding 0.2 AU) | + (A positive growth response was recorded for an OD600 exceeding 0.2 AU) | + (A positive growth response was recorded for an OD600 exceeding 0.2 AU) | growth was observed |  |  |  |
| O=C(O)CC(O)(CC(=O)O)C(=O)O [Na-Citrate] |  |  |  | + (A positive growth response was recorded for an OD600 exceeding 0.2 AU) | growth was observed | inability | inability | inability |
| O=C(O)C1=C[C@@H](O)[C@@H](O)[C@H](O)C1 [Shikimic acid] | + (A positive growth response was recorded for an OD600 exceeding 0.2 AU) | + (A positive growth response was recorded for an OD600 exceeding 0.2 AU) | + (A positive growth response was recorded for an OD600 exceeding 0.2 AU) | + (A positive growth response was recorded for an OD600 exceeding 0.2 AU) | growth was observed |  |  |  |
| N=C(N)NCCC[C@H](N)C(=O)O [Arginine] | + (A positive growth response was recorded for an OD600 exceeding 0.2 AU) |  | + (A positive growth response was recorded for an OD600 exceeding 0.2 AU) | + (A positive growth response was recorded for an OD600 exceeding 0.2 AU) | growth was observed |  | inability |  |
| OC[C@H]1O[C@@](CO)(O[C@H]2O[C@H](CO)[C@@H](O)[C@H](O)[C@H]2O)[C@@H](O)[C@@H]1O [Sucrose] | + (A positive growth response was recorded for an OD600 exceeding 0.2 AU) | + (A positive growth response was recorded for an OD600 exceeding 0.2 AU) | + (A positive growth response was recorded for an OD600 exceeding 0.2 AU) | + (A positive growth response was recorded for an OD600 exceeding 0.2 AU) | growth was observed |  |  |  |
| CC(=O)C(=O)O [Na-Pyruvate] | + (A positive growth response was recorded for an OD600 exceeding 0.2 AU) | + (A positive growth response was recorded for an OD600 exceeding 0.2 AU) | + (A positive growth response was recorded for an OD600 exceeding 0.2 AU) | + (A positive growth response was recorded for an OD600 exceeding 0.2 AU) | growth was observed |  |  |  |
| N[C@@H](CCC(=O)O)C(=O)O [Glutamate] | + (A positive growth response was recorded for an OD600 exceeding 0.2 AU) | + (A positive growth response was recorded for an OD600 exceeding 0.2 AU) | + (A positive growth response was recorded for an OD600 exceeding 0.2 AU) | + (A positive growth response was recorded for an OD600 exceeding 0.2 AU) | growth was observed |  |  |  |
| O=C(O)/C=C\C(=O)O [Maleic acid] | + (A positive growth response was recorded for an OD600 exceeding 0.2 AU) |  | + (A positive growth response was recorded for an OD600 exceeding 0.2 AU) | + (A positive growth response was recorded for an OD600 exceeding 0.2 AU) |  |  | inability |  |
| O=C(O)[C@H](O)[C@@H](O)[C@H](O)[C@H](O)CO [D-Gluconic Acid] | + (A positive growth response was recorded for an OD600 exceeding 0.2 AU) |  | + (A positive growth response was recorded for an OD600 exceeding 0.2 AU) |  | inability |  |  |  |
| O=C([O-])CCC(=O)[O-].[Na+].[Na+] [Na-Succinate] | + (A positive growth response was recorded for an OD600 exceeding 0.2 AU) | + (A positive growth response was recorded for an OD600 exceeding 0.2 AU) | + (A positive growth response was recorded for an OD600 exceeding 0.2 AU) | + (A positive growth response was recorded for an OD600 exceeding 0.2 AU) | growth was observed |  |  |  |
| O=C(O)CC(=O)C(=O)O [Oxaloacetic acid] | + (A positive growth response was recorded for an OD600 exceeding 0.2 AU) |  |  | + (A positive growth response was recorded for an OD600 exceeding 0.2 AU) | growth was observed |  | inability |  |
| C[C@H](N)C(=O)O [Alanine] | + (A positive growth response was recorded for an OD600 exceeding 0.2 AU) | + (A positive growth response was recorded for an OD600 exceeding 0.2 AU) | + (A positive growth response was recorded for an OD600 exceeding 0.2 AU) | + (A positive growth response was recorded for an OD600 exceeding 0.2 AU) | growth was observed |  |  |  |
| O=C(O)CCC(=O)C(=O)O [Alpha-ketoglutarate] | + (A positive growth response was recorded for an OD600 exceeding 0.2 AU) | + (A positive growth response was recorded for an OD600 exceeding 0.2 AU) | + (A positive growth response was recorded for an OD600 exceeding 0.2 AU) | + (A positive growth response was recorded for an OD600 exceeding 0.2 AU) | growth was observed |  |  |  |
| O=C(O)CC(O)C(=O)O (stereo not drawn) [Malic acid] | + (A positive growth response was recorded for an OD600 exceeding 0.2 AU) | + (A positive growth response was recorded for an OD600 exceeding 0.2 AU) | + (A positive growth response was recorded for an OD600 exceeding 0.2 AU) | + (A positive growth response was recorded for an OD600 exceeding 0.2 AU) | growth was observed |  |  |  |
| OCc1ccccc1O[C@@H]1O[C@H](CO)[C@@H](O)[C@H](O)[C@H]1O [Salicin] | + (A positive growth response was recorded for an OD600 exceeding 0.2 AU) | + (A positive growth response was recorded for an OD600 exceeding 0.2 AU) | + (A positive growth response was recorded for an OD600 exceeding 0.2 AU) | + (A positive growth response was recorded for an OD600 exceeding 0.2 AU) | growth was observed |  |  |  |
| O=C(O)CC(=O)O [Malonic acid] | + (A positive growth response was recorded for an OD600 exceeding 0.2 AU) | + (A positive growth response was recorded for an OD600 exceeding 0.2 AU) | + (A positive growth response was recorded for an OD600 exceeding 0.2 AU) | + (A positive growth response was recorded for an OD600 exceeding 0.2 AU) | growth was observed |  |  |  |
| C[C@H](O)[C@H](O)[C@@H](O)[C@@H](O)C=O [Rhamnose] | + (A positive growth response was recorded for an OD600 exceeding 0.2 AU) |  | + (A positive growth response was recorded for an OD600 exceeding 0.2 AU) |  | inability |  |  |  |
| O=C[C@H](O)[C@@H](O)[C@H](O)CO [Xylose] | + (A positive growth response was recorded for an OD600 exceeding 0.2 AU) | + (A positive growth response was recorded for an OD600 exceeding 0.2 AU) | + (A positive growth response was recorded for an OD600 exceeding 0.2 AU) | + (A positive growth response was recorded for an OD600 exceeding 0.2 AU) | growth was observed |  |  |  |
| N[C@@H](Cc1c[nH]cn1)C(=O)O [Histidine] | + (A positive growth response was recorded for an OD600 exceeding 0.2 AU) |  | + (A positive growth response was recorded for an OD600 exceeding 0.2 AU) | + (A positive growth response was recorded for an OD600 exceeding 0.2 AU) | growth was observed |  | inability |  |
| C=C(OP(=O)(O)O)C(=O)O [Phosphoenol-pyruvate] | + (A positive growth response was recorded for an OD600 exceeding 0.2 AU) | + (A positive growth response was recorded for an OD600 exceeding 0.2 AU) | + (A positive growth response was recorded for an OD600 exceeding 0.2 AU) | + (A positive growth response was recorded for an OD600 exceeding 0.2 AU) | growth was observed |  |  |  |
| N[C@@H](CO)C(=O)O [Serine] | + (A positive growth response was recorded for an OD600 exceeding 0.2 AU) | + (A positive growth response was recorded for an OD600 exceeding 0.2 AU) | + (A positive growth response was recorded for an OD600 exceeding 0.2 AU) | + (A positive growth response was recorded for an OD600 exceeding 0.2 AU) | growth was observed |  |  |  |
